Experimental data reported in patent US8143254B2, “Methods for modulating ion channels” (Cornell Research Foundation, Inc., priority 2005, dated 2012).

Target: T1, Kv2.1 channels expressed in CHO cells (Rattus norvegicus, UniProt P15387)
T1 construct: expressed in transfected cells; host or cells: CHO cells (transient, co-transfected with GFP plasmid)
T1 sequence (P15387 1-857): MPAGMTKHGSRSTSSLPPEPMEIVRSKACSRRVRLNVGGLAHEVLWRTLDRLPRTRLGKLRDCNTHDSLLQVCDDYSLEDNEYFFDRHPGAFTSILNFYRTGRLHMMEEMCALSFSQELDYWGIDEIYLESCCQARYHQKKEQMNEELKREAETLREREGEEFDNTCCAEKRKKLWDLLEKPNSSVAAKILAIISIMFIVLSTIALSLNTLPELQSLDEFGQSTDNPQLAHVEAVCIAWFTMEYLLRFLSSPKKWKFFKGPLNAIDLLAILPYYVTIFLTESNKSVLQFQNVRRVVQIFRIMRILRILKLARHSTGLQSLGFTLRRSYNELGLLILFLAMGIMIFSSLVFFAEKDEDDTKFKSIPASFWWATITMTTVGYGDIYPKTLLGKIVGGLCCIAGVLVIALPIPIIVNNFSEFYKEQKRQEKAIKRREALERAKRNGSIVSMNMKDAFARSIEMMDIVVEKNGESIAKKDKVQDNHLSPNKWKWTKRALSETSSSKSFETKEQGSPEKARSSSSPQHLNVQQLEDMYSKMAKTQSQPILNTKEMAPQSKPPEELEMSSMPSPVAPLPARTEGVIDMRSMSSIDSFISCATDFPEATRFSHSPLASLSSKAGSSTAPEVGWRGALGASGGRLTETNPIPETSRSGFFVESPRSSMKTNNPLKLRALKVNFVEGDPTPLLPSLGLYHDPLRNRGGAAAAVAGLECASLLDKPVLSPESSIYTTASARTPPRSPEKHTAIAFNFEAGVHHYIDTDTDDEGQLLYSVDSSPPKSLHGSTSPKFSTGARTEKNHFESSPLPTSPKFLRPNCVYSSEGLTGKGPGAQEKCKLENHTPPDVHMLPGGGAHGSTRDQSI
Assay: Whole-cell voltage clamp of CHO cells transfected with Kv2.1
Type: cell-based
Excerpt: Kv2.1 mutants were constructed using the QuickChange Multi Site-Directed Mutagenesis Kit (Stratagene, La Jolla, Calif.). Mutant Kv2.1 genes (in the pGA1 oocyte expression vector for oocyte expression) were sequenced in their entirety to confirm appropriate mutations and check for inadvertent mutations, and then subcloned into a wild-type pGA1 backbone. For oocyte expression, Kv3.4 was in pBF1, Kv4.2 was in pRAT. cRNA transcripts were produced from SacII-linearized (Kv2.1), Mlullinearized (Kv3.4) and Not1-linearized (Kv4.2) DNA templates using the T3 (Kv2.1), SP6 (Kv3.4) and T7 (Kv4.2) mMessage mMachine kits (Ambion, Austin, Tex.). cRNA was quantified by spectrophotometry and its size integrity verified by gel electophoresis. Defolliculated stage V and VI Xenopus laevis oocytes (purchased from Nasco, Grand Island, N.Y.) were injected with 5 ng of cRNA encoding Kv2.1, Kv3.4 or Kv4.2. Chinese Hamster Ovary (CHO) cells were transfected with 0.25 μg Kv2.1 cDNA, 2 μg blank plasmid and 2 μg Green fluorescent Protein in pBOB using Supetfect transfection reagent (Qiagen) 24 hours before whole-cell voltage clamp studies.
For whole-cell voltage clamp studies of CHO cells, bath solution was (in mM): 135 NaCl, 5 KCl, 1.2 MgCl2, 5 HEPES, 2.5 CaCl2, and 10 D-glucose, pH 7.4. Pipettes were 3-5 MQ resistance when filled with intracellular solution containing (in mM): 10 NaCl, 117 KCl, 2 MgCl2, 11 HEPES, 11 EGTA, and 1 CaCl2, pH 7.2. For experiments with extracellular drug application, cells were held at −80 mV and subjected to 2 sec test pulses […] every 30 s. Whole-cell patch clamp recordings were performed at 22-25° C. using an IX50 inverted microscope equipped with epifluorescence optics for GFP detection (Olympus), a Multiclamp 700 A Amplifier, a Digidata 1300 Analogue/Digital converter and pClamp9 software (Axon Instruments). Leak and liquid junction potentials (<4 mV) were not compensated for when generating current-voltage relationships. For intracellular drug application, the tip of the recording electrode was first filled with drug-free intracellular solution, the electrode was then back-filled with intracellular solution containing TEA (20 mM), TA279 (5 mM) or JC638.2α (0.5 mM). Cells were held at −80 mV and subjected to 2 sec test pulses from −60 mV to +60 mV in 10 mV increments, followed by a 1 sec tail pulse to −30 mV. After an initial recording which we denoted time 0, a second recording was performed after 5 minutes.
Data analysis: Current-voltage relationships were obtained by measuring peak current during depolarizing pulses. Inhibition constants for DABCO blockers were calculated after generating a dose response curve by fitting with a logistic dose-response function y=A2+[A1−A2/1+(x/x0)^p], where A1 is the maximum response plateau, A2 is the minimum response plateau, x is drug concentrator, x0 is the IC50, and p the Hill slope. Data analysis was performed using CLAMPFIT 9 (Axon Instruments, Foster City, Calif.) and tabulated in Excel 5.0. Graphs were generated using Origin 6.1. Data are expressed as mean±SEM, with n specifying the number of independent experiments. Statistical significance was assessed by one-way ANOVA with p<0.05 being indicative of significance.

| Compound | block on intracellular application (0.5 mM via recording electrode, 0 mV) | sensitivity of Kv2.1 in CHO cells relative to Kv2.1 in oocytes | block on intracellular application (5 μM via recording electrode, 0 mV, at 0 or 5 minutes) | inhibition at 0.5 µM (CHO, extracellular application, 500 nM, 0 mV, n=3, read-out: mean current inhibition) |
| --- | --- | --- | --- | --- |
| c1cc(C[N+]23CCN(CC2)CC3)ccc1C[N+]12CCN(CC1)CC2 [JC638.2α, α,α′-[bis(4-aza-1-azoniabicyclo[2.2.2]octanyl)]p-xylene] | no significant block |  |  |  |
| CCCCCCCCCCCCCCCC[N+]12CCN(CC1)CC2 [TA279, 1-aza-4-azonia-4-hexadecylbicyclo[2.2.2]octane] |  | ~4 fold | no significant block | 59 ± 4% |
